What was measured:
PDGFR = assay: Inhibition of PDGFR phosphorylation; format: biochemical
Source text: (§1) FLT3 is a class III receptor tyrosine kinase and plays an important role in hematopoiesis and lymphocyte development. […] Wang et al found over 60% of 82 leukemia cell lines were FLT3 positive (Wang Y et al., (2006) Journal of Experimental Hematology 14(3): 446-449). FLT3-internal tandem duplication (ITD) is the most commonly seen mutation in AML patients, with about 17-34% of AML patients carrying such a mutation (Jia H et al., (2018) Medical Laboratory Science and Clinics 19(5): 39). […] Thus, the compounds of the disclosure with high inhibitory effect on FLT3 function may be good candidates for leukemia treatment.

AKT = assay: Inhibition of AKT phosphorylation; format: biochemical
Source text: as §1

U87 = assay: MTT tumor cell proliferation, U87; format: cell-based; details: Homo sapiens, U-87 MG; U87, Brain glioma, 72 hour
Procedure: (§2) as an exemplary compound of formula (I), was tested for its inhibitory effect on tumor cell proliferation in a MTT assay.
(§3) Briefly, cells at the log phase were collected, suspended in the cell culture medium at 4*10^4/ml density, and plated in 96-well plates, 90 μl per well. The plates were kept in a 5% CO2 and 37° C. incubator for 2 hours, and then added with 100 μg/ml, 10 μg/ml, 1 μg/ml, 0.1 μg/ml, 0.01 μg/ml or 0.001 μg/ml Compound A, 4 replicates for each cell at each compound concentration. DMSO was used in the positive control group, and another negative group was also set. After 72 hour incubation in the same incubator, 20 μl 5 mg/ml MTT reagent was added to each well. After another 4 hour incubation, each well was added with 100 μl SDS and further incubated for 12 hours. Absorbance at 570 nm was read in a reader, and IC50 was calculated.

BT-474 = assay: MTT tumor cell proliferation, BT-474; format: cell-based; details: Homo sapiens; BT-474, Breast cancer, 72 hour
Procedure: as §2, §3

HL-60 = assay: MTT tumor cell proliferation, HL-60; format: cell-based; details: Homo sapiens; HL-60, Acute promyelocytic leukemia, 72 hour
Procedure: as §2, §3

RS 4;11 = assay: MTT tumor cell proliferation, RS 4;11; format: cell-based; details: Homo sapiens, RS4-11; RS 4;11, Acute lymphocytic leukemia, 72 hour
Procedure: as §2, §3

solid cancer cell lines = assay: MTT tumor cell proliferation, solid cancer cell lines (summary); format: cell-based; details: summary of Table 2
Procedure: as §2, §3

MV-4-11 cells [1] = assay: MV-4-11 AML xenograft in mice (Example 7); format: in vivo, BALB-cA nude mice; details: D0-20; for Complete remission: number of mice, N 6
Procedure: Mice body weights and tumor sizes were measured twice a week. The tumor volume, T/C and TGI (Tumor growth inhibition=(average tumor volume in vehicle group-average tumor volume in administration group)/average tumor volume in vehicle group ×100%) were calculated. Mice were sacrificed on Day 21.

MV-4-11 cells [2] = assay: MV-4-11 AML xenograft in mice, combination with daunorubicin (Example 8); format: in vivo, BALB-cA nude mice; details: 30 mg/kg P.O., D0-10
Procedure: Mice body weights and tumor sizes were measured twice a week. The tumor volume, T/C and TGI (Tumor growth inhibition=(average tumor volume in vehicle group-average tumor volume in administration group)/average tumor volume in vehicle group ×100%) were calculated. Mice were sacrificed on Day 21. Female BALB-cA nude mice, 6-7 weeks old, purchased from Shanghai Ling-chang Biotech Co., Ltd, were subcutaneously inoculated with MV-4-11 cells (from ATCC). […] Mice body weights and tumor sizes were measured twice a week. The tumor volume, T/C and tumor volume based TGI were calculated as described above. Mice were sacrificed on Day 11.

H526 = assay: Tumor cell death by MTT, H526; format: cell-based, human; details: 20 nM
Procedure: The in vitro inhibitory effect of Compound A alone or in combination with a PARP inhibitor on tumor cell growth was tested using human small cell lung cancer (SCLC) cell lines, including H69 (ATCC® HTB-119™), H526 (ATCC® CRL-5811™) and H446 (TCHu196, National Collection of Authenticated Cell Cultures).
Briefly, the cells were seeded into a 96-well dish with RPMI-1640 (10-040-CV, Coming cellgro) containing 10% fetal bovine serum (10270-106, GIBCO), 1% penicillin and 1% streptomycin (BaSalMedia, S110JV), at an initial density of 3×10^3 cells per well ([…]), and cultured at a 37° C., 5% CO2 humidified incubator for 24 hours. Then, the culture media were added with Compound A (final concentration at 20 nM), olaparib (APEXBIO, A4154, a PARP inhibitor, final concentration at 10 μM), Compound A + olaparib (final concentrations at20 nM and 10 μM), or PBS (vehicle), respectively, and the cells were cultured for 48 hours. Then, cell viability was determined by MTT. The test was done in triplicate.
Cell death rate was calculated by the following formula.
Cell death rate=[1−(ODtest-ODvehicle)]×100%
Cell death rates were analyzed using student's t-test, and group differences were deemed statistically significant when the p-value was lower than 0.05. Zheng-Jun Jin's Q value was calculated using the formula Q=EA+B/(EA+EB-EA×EB) to assess the combined effect of Compound A and the PARP inhibitor, wherein EA+B, EA, and EB referred to the cell death rates caused by the combined treatment, Compound A treatment and PARP inhibitor treatment, respectively. A Q value higher than 1.15 meant a synergistic […] effect.
Another PARP inhibitor, rucaparib (APEXBIO, A4156), was tested alone or with Compound A for inhibitory effect on tumor cell growth, following the protocol of Example 9.

PI3K δ isoform = PI3K δ isoform (Homo sapiens, UniProt O00329); assay: biochemical
PI3K γ isoform = PI3K γ isoform (Homo sapiens, UniProt P48736); assay: PI3K γ isoform inhibition; details: one of the other three isoforms
Sequence of PI3K γ isoform (P48736 whole entry, canonical isoform): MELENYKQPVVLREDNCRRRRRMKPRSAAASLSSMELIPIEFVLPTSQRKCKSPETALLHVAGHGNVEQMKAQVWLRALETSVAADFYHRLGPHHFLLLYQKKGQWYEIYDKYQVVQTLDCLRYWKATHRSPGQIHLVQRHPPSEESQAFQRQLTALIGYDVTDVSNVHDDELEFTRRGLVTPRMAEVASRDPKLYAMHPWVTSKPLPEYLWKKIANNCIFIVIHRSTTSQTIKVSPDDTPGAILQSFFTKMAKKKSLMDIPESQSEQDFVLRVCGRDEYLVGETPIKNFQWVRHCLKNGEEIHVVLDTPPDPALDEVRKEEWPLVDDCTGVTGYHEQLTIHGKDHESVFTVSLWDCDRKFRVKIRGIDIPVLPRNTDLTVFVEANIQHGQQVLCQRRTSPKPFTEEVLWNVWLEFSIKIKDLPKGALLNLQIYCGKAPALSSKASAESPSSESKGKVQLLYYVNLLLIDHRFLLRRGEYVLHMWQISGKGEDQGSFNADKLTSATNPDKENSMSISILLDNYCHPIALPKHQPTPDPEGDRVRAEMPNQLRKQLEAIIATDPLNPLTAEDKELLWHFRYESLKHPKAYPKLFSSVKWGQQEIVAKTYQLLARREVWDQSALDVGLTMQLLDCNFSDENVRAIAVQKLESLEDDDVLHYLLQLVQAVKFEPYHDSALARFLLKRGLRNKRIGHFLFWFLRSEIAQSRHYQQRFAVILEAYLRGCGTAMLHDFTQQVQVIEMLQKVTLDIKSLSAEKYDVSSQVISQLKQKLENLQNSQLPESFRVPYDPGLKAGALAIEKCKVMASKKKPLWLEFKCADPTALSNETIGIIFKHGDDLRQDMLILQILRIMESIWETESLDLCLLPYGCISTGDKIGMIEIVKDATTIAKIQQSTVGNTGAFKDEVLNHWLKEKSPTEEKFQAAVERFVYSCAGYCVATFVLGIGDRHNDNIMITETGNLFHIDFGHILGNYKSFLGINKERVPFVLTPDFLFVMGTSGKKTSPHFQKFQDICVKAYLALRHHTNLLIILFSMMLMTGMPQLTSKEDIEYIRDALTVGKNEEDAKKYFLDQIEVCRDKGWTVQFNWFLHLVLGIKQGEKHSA

Sequence of PI3K δ isoform (O00329 whole entry, canonical isoform): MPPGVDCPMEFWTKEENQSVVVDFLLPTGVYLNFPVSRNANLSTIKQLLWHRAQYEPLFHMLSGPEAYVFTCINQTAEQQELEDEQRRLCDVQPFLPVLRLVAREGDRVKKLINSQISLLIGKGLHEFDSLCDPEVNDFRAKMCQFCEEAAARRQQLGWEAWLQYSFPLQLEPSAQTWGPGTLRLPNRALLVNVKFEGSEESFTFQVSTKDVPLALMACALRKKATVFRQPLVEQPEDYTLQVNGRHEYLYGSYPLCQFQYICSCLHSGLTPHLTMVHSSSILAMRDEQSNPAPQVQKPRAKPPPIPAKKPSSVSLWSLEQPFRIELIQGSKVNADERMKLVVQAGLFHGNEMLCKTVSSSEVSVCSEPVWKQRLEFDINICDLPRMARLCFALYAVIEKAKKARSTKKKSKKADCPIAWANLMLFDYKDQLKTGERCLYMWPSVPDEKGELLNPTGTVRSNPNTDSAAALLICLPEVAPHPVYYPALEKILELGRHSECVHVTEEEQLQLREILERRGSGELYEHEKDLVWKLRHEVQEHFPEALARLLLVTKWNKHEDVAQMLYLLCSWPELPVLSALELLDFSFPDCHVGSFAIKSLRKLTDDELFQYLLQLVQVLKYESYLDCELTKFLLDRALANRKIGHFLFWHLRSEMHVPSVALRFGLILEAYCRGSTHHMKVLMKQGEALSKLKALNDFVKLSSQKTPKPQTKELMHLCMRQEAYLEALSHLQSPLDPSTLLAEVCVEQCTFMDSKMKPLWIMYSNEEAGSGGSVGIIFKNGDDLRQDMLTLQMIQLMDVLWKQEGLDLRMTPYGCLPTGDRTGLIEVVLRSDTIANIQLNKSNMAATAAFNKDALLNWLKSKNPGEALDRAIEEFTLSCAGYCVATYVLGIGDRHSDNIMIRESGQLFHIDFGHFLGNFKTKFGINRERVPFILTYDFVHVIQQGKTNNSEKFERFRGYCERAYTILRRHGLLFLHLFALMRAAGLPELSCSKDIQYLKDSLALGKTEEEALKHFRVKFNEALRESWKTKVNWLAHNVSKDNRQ
Sequence of PI3K δ isoform (P27986 whole entry partner, canonical isoform): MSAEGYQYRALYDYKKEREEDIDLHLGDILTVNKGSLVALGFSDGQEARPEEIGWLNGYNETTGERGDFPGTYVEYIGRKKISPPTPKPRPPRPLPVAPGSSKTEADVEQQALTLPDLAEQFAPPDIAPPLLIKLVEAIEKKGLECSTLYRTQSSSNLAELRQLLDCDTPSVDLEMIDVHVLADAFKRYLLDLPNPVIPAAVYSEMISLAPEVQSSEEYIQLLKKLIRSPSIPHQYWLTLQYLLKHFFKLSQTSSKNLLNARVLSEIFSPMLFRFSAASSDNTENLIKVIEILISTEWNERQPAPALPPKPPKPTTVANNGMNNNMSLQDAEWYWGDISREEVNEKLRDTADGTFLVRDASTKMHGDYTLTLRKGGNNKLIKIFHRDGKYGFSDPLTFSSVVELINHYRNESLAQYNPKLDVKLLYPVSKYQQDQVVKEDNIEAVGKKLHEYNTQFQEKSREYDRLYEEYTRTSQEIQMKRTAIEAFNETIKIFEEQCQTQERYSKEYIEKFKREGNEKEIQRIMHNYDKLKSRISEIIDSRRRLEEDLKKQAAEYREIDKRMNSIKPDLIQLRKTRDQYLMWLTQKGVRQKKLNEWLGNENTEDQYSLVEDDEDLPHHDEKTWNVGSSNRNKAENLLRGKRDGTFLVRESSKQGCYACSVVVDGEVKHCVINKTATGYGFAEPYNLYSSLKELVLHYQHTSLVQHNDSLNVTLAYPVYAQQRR

## c1cnc2ccc(Nc3nc(NC4CC4)c4nc[nH]c4n3)cc2c1 [Compound A]
PDGFR
  EC50: ~1000 nM
AKT
  EC50: ~100 nM
U87
  IC50: 9700 ± 7000 nM
BT-474
  IC50: 4400 ± 400 nM
HL-60
  IC50: 500 ± 300 nM
RS 4;11
  IC50: 400 ± 100 nM
Solid cancer cell lines
  IC50: ≥ 2300 nM
MV-4-11 cells [1]; 30 mg/kg P.O.
  T/C (%) D21: 28%
  TGI (%) D21: 72%
  Tumor volume D0: 77.6 ± 3.4 mm^3
  Tumor volume D21: 279.2 ± 71.8 mm^3
  Complete remission: 0
MV-4-11 cells [1]; 60 mg/kg P.O.
  T/C (%) D21: 0%
  TGI (%) D21: 100%
  Tumor volume D0: 79.3 ± 2.6 mm^3
  Tumor volume D21: 76.6 ± 46.2 mm^3
  Complete remission: 3
MV-4-11 cells [2]; D11
  T/C: 71%
  TGI: 29%
MV-4-11 cells [2]; in mm³
  Tumor volume D0: 150.9
  Tumor volume D11: 2076.3
H526; 48 hours, Table 10
  Cell Death Rate/% 1: 10.5%
  Cell Death Rate/% 2: 9.87%
  Cell Death Rate/% 3: 10.95%
  Cell Death Rate/% mean: 10.44%
H526; Example 10, Table 11
  Cell Death Rate/% 1: 8.29%
  Cell Death Rate/% 2: 8.39%
  Cell Death Rate/% 3: 8.64%
  Cell Death Rate/% mean: 8.44%
PI3K δ isoform
  EC50: ~90 nM
PI3K γ isoform
  EC50, PI3K γ isoform: at the μM level
